Literature values in patent US20250127693A1, “Materials for Desensitization and Targeted Drug Delivery to Teeth and Gums” (South Dakota Board of Regents, priority 2023, published 2025).

How the values were obtained:
mammalian cells = settings: prolonged exposures

**Q.** What does the source list for `C=CCc1ccc(O)c(OC)c1` [eugenol]?
**A.** concentration at which eugenol inhibits proliferation of cancerous cells (cancerous cells): 82 µg/mL; concentration at which toxicity for mammalian cells starts (mammalian cells): 164 µg/mL
